Measured values from patent publication US20240002425A1, “NOVEL AMINOALKYL GLUCOSAMINIDE 4-PHOSPHATE DERIVATIVE” (DAIICHI SANKYO COMPANY, LIMITED, priority 2020, published 2024).

Biological target: human TLR4 (Homo sapiens, UniProt O00206+Q9Y6Y9)
Assay: Human TLR4 activating effect (HEK-Blue Human TLR4 Cells, SEAP reporter)
Type: cell-based
Conditions: 24 hours, SEAP Protein concentration, read-out: EC50 (ng/ml) (converted)
Protocol: The human TLR4 activating effect was studied using the compounds described in Examples 1 to 17 and monophosphoryl lipid A as Comparative Example A.
Triethanolamine was dissolved at 0.5% (v/v) in injectable distilled water to prepare an aqueous triethanolamine solution. 1 mg of each test drug was dissolved in 0.98 mL of the aqueous triethanolamine solution, and pH of the solution was then adjusted to 7.2 to 7.4 by the addition of 20 μL of 1 M HCl to prepare a 1 mg/mL solution. A dilution series of the test drug was prepared using a medium [DMEM (Nacalai Tesque, Inc.), 10% FBS (Sigma-Aldrich Co. LLC), 50 U/mL penicillin-50 μg/mL streptomycin (Thermo Fisher Scientific Inc.), 1×HEK-Blue Selection (InvivoGen), and 100 μg/mL Normocin (InvivoGen)]. 2×10^5 cells/mL HEK-Blue™ Human TLR4 Cells (InvivoGen) were inoculated to each well of a 96-well microplate for tissue culture (Iwaki), then treated with the test drug, and cultured at 37° C. for 24 hours under 5% CO2. The cells thus cultured were centrifuged at 400×g at 4° C. for 3 minutes. Recombinant SEAP Protein (InvivoGen) was used for a calibration curve. After addition of 180 μL of QUANTI-Blue (InvivoGen) to each well of 96 Well TC-Treated Microplates (Corning, Inc.), 20 μL each of the cell culture supernatant and a standard diluting solution was added to each well, and the plate was left standing at 37° C. for 4 hours. After reaction, absorbance (wavelength: 655 nm) was measured using a microplate reader (PerkinElmer, Inc., EnSpire), and a SEAP Protein concentration was calculated from the calibration curve and used as an index for TLR4 agonist activity. A drug concentration that induced reaction corresponding to 50% of the maximum reaction was calculated as EC50 (ng/mL) from a linear expression using two drug concentrations between which the drug concentration that induced reaction corresponding to 50% of the maximum reaction in each experiment was positioned, and measured values thereof.

human TLR4, sequence (O00206 24-839): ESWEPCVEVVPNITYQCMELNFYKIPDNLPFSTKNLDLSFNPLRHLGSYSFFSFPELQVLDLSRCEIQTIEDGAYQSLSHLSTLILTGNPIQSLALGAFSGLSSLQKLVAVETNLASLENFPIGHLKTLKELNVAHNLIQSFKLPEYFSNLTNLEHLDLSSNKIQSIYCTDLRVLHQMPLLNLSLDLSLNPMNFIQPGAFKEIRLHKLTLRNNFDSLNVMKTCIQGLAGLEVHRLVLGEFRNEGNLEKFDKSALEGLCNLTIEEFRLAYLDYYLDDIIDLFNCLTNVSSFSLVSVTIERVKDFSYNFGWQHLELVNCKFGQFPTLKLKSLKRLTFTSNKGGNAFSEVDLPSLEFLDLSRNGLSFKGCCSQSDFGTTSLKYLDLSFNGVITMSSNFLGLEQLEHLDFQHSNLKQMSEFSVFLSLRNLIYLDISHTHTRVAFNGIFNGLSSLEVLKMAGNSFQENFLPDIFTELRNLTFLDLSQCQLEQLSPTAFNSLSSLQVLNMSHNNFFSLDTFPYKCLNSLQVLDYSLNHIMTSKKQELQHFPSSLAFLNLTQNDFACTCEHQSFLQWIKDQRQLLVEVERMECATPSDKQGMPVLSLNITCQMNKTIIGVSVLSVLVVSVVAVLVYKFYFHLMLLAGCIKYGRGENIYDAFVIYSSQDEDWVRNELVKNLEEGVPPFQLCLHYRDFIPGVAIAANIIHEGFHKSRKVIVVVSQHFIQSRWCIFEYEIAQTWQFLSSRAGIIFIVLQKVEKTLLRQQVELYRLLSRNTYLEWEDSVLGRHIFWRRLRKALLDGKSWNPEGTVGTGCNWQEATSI
human TLR4, sequence (Q9Y6Y9 17-160 limits assumed): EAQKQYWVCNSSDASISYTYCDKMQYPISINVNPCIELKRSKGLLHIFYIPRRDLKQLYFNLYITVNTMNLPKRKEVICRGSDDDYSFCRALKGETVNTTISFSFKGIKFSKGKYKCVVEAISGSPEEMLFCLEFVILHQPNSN

Row | SMILES | EC50 [nM]
1 | CCCCCCCCCCC[C@H](CC(=O)NC1C(OC[C@@H](CC(=O)O)NC(=O)C[C@@H](CCCCCCCCCCC)OC(=O)CCCCCCCCC)OC(COC2(C(=O)O)CC(OC3(C(=O)O)CC(O)C(O)C([C@H](O)CO)O3)C(O)C([C@H](O)CO)O2)C(OP(=O)(O)O)C1OC(=O)C[C@@H](CCCCCCCCCCC)OC(=O)CCCCCCCCC)OC(=O)CCCCCCCCC (stereo partly drawn) [Example 3(3d), Ammonium (3R)-3-{[(3R)-3-(decanoyloxy)tetradecanoyl]amino}-4-{[3-deoxy-α-D-manno-oct-2-ulopyranonosyl-(2-+4)-3-deoxy-α-D-manno-oct-2-ulopyranonosyl-(2-+6)-3-O-[(3R)-3-(decanoyloxy)tetradecanoyl]-2-{[(3R)-3-(decanoyloxy)tetradecanoyl]amino}-2-deoxy-4-O-phosphono-β-D-glucopyranosyl]oxy}butanoate] | 0.422
2 | CCCCCCCCCCC[C@H](CC(=O)N[C@H]1[C@H](OC[C@H](NC(=O)C[C@@H](CCCCCCCCCCC)OC(=O)CCCCCCCCC)C(=O)O)O[C@H](CO[C@]2(C(=O)O)C[C@@H](O)[C@@H](O)[C@@H]([C@H](O)CO)O2)[C@@H](OP(=O)(O)O)[C@@H]1OC(=O)C[C@@H](CCCCCCCCCCC)OC(=O)CCCCCCCCC)OC(=O)CCCCCCCCC [Example 4(4d), Ammonium (2S)-2-{[(3R)-3-(decanoyloxy)tetradecanoyl]amino}-3-({3-O-[(3R)-3-(decanoyloxy)tetradecanoyl]-2-{[(3R)-3-(decanoyloxy)tetradecanoyl]amino}-2-deoxy-6-O-(3-deoxy-α-D-manno-oct-2-ulopyranonosyl)-4-O-phosphono-β-D-glucopyranosyl}oxy)propanoate] | 0.328
3 | CCCCCCCCCCC[C@H](CC(=O)NC1C(OC[C@H](NC(=O)C[C@@H](CCCCCCCCCCC)OC(=O)CCCCCCCCC)C(=O)O)OC(COC2(C(=O)O)CC(OC3(C(=O)O)CC(O)C(O)C([C@H](O)CO)O3)C(O)C([C@H](O)CO)O2)C(OP(=O)(O)O)C1OC(=O)C[C@@H](CCCCCCCCCCC)OC(=O)CCCCCCCCC)OC(=O)CCCCCCCCC (stereo partly drawn) [Example 5(5d), Ammonium (2S)-2-{[(3R)-3-(decanoyloxy)tetradecanoyl]amino}-3-{[3-deoxy-α-D-manno-oct-2-ulopyranonosyl-(2-+4)-3-deoxy-α-D-manno-oct-2-ulopyranonosyl-(2-+6)-3-O-[(3R)-3-(decanoyloxy)tetradecanoyl]-2-{[(3R)-3-(decanoyloxy)tetradecanoyl]amino}-2-deoxy-4-O-phosphono-β-D-glucopyranosyl]oxy}propanoate] | 0.187
4 | CCCCCCCCCCC[C@H](CC(=O)N[C@H]1[C@H](OC[C@H](NC(=O)C[C@@H](CCCCCCCCCCC)OC(=O)CCCCCCCCC)C(=O)O)O[C@H](CO[C@@H]2O[C@H](CO)[C@@H](OP(=O)(O)O)[C@H](O)[C@H]2NC(C)=O)[C@@H](OP(=O)(O)O)[C@@H]1OC(=O)C[C@@H](CCCCCCCCCCC)OC(=O)CCCCCCCCC)OC(=O)CCCCCCCCC [Example 8(8f), Ammonium (2S)-3-({6-O-[2-acetamido-2-deoxy-4-O-(hydroxyphosphinato)-β-D-glucopyranosyl]-3-O-[(3R)-3-(decanoyloxy)tetradecanoyl]-2-{[(3R)-3-(decanoyloxy)tetradecanoyl]amino}-2-deoxy-4-O-phosphono-β-D-glucopyranosyl}oxy)-2-{[(3R)-3-(decanoyloxy)tetradecanoyl]amino}propanoate] | 0.35
5 | CCCCCCCCCCC[C@H](CC(=O)N[C@H]1[C@H](OC[C@H](NC(=O)C[C@@H](CCCCCCCCCCC)OC(=O)CCCCCCCCC)C(=O)O)O[C@H](CO[C@@H]2O[C@H](COP(=O)(O)O)[C@@H](O)[C@H](O)[C@H]2NC(C)=O)[C@@H](OP(=O)(O)O)[C@@H]1OC(=O)C[C@@H](CCCCCCCCCCC)OC(=O)CCCCCCCCC)OC(=O)CCCCCCCCC [Example 9(9e), Ammonium (2S)-3-({6-O-[2-acetamido-2-deoxy-6-O-(hydroxyphosphinato)-β-D-glucopyranosyl]-3-O-[(3R)-3-(decanoyloxy)tetradecanoyl]-2-{[(3R)-3-(decanoyloxy)tetradecanoyl]amino}-2-deoxy-4-O-phosphono-β-D-glucopyranosyl}oxy)-2-{[(3R)-3-(decanoyloxy)tetradecanoyl]amino}propanoate] | 0.288
6 | CCCCCCCCCCC[C@H](CC(=O)NC1C(CC[C@@H](CC(=O)O)NC(=O)C[C@@H](CCCCCCCCCCC)OC(=O)CCCCCCCCC)OC(COC2(C(=O)O)CC(OC3(C(=O)O)CC(O)C(O)C([C@H](O)CO)O3)C(O)C([C@H](O)CO)O2)C(OP(=O)(O)O)C1OC(=O)C[C@@H](CCCCCCCCCCC)OC(=O)CCCCCCCCC)OC(=O)CCCCCCCCC (stereo partly drawn) [Example 12(12d), Ammonium 3-deoxy-α-D-manno-oct-2-ulopyranonosyl-(2-+4)-3-deoxy-α-D-manno-oct-2-ulopyranonosyl-(2-+11)-6,10-anhydro-8-O-[(3R)-3-(decanoyloxy)tetradecanoyl]-3,7-bis{[(3R)-3-(decanoyloxy)tetradecanoyl]amino}-2,3,4,5,7-pentadeoxy-9-O-phosphono-D-erythro-L-galacto-undecanoate] | 0.67

Now from value to compound:

Row | EC50 [nM] | SMILES
7 | 0.612 | CCCCCCCCCCC[C@H](CC(=O)N[C@@H](CO[C@@H]1O[C@H](CO)[C@@H](OP(=O)(O)O)[C@H](OC(=O)C[C@@H](CCCCCCCCCCC)OC(=O)CCCCCCCCC)[C@H]1NC(=O)C[C@@H](CCCCCCCCCCC)OC(=O)CCCCCCCCC)CC(=O)O)OC(=O)CCCCCCCCC [Example 1(1k), Bisammonium (3R)-3-{[(3R)-3-(decanoyloxy)tetradecanoyl]amino}-4-({3-O-[(3R)-3-(decanoyloxy)tetradecanoyl]-2-{[(3R)-3-(decanoyloxy)tetradecanoyl]amino}-2-deoxy-4-O-phosphono-β-D-glucopyranosyl}oxy)butanoate]
8 | 0.0661 | CCCCCCCCCCC[C@H](CC(=O)NC1C(OC[C@H](NC(=O)C[C@@H](CCCCCCCCCCC)OC(=O)CCCCCCCCC)C(=O)O)OC(COC2OC(C(=O)O)C(O)C(O)C2O)C(OP(=O)(O)O)C1OC(=O)C[C@@H](CCCCCCCCCCC)OC(=O)CCCCCCCCC)OC(=O)CCCCCCCCC (stereo partly drawn) [Example 6(6b), Ammonium (2S)-2-{[(3R)-3-(decanoyloxy)tetradecanoyl]amino}-3-({3-O-[(3R)-3-(decanoyloxy)tetradecanoyl]-2-{[(3R)-3-(decanoyloxy)tetradecanoyl]amino}-2-deoxy-6-β-D-glucopyranuronosyl-4-O-phosphono-β-D-glucopyranosyl}oxy)propanoate]
9 | 0.396 | CCCCCCCCCCC[C@H](CC(=O)N[C@H]1[C@H](OC[C@H](NC(=O)C[C@@H](CCCCCCCCCCC)OC(=O)CCCCCCCCC)C(=O)O)O[C@H](CO[C@@H]2O[C@H](CO)[C@@H](O)[C@H](O)[C@H]2NC(C)=O)[C@@H](OP(=O)(O)O)[C@@H]1OC(=O)C[C@@H](CCCCCCCCCCC)OC(=O)CCCCCCCCC)OC(=O)CCCCCCCCC [Example 7(7c), Ammonium (2S)-3-{[6-O-(2-acetamido-2-deoxy-β-D-glucopyranosyl)-3-O-[(3R)-3-(decanoyloxy)tetradecanoyl]-2-{[(3R)-3-(decanoyloxy)tetradecanoyl]amino}-2-deoxy-4-O-phosphono-β-D-glucopyranosyl]oxy}-2-{[(3R)-3-(decanoyloxy)tetradecanoyl]amino}propanoate]
10 | 0.667 | CCCCCCCCCCC[C@H](CC(=O)NC1C(CC[C@@H](CC(=O)O)NC(=O)C[C@@H](CCCCCCCCCCC)OC(=O)CCCCCCCCC)OC(CO)C(OP(=O)(O)O)C1OC(=O)C[C@@H](CCCCCCCCCCC)OC(=O)CCCCCCCCC)OC(=O)CCCCCCCCC (stereo partly drawn) [Example 10(10r), Ammonium 6,10-anhydro-8-O-[(3R)-3-(decanoyloxy)tetradecanoyl]-3,7-bis{[(3R)-3-(decanoyloxy)tetradecanoyl]amino}-2,3,4,5,7-pentadeoxy-9-O-phosphono-D-erythro-L-galacto-undecanoate]
11 | 0.291 | CCCCCCCCCCC[C@H](CC(=O)NC1C(CC[C@@H](CC(=O)O)NC(=O)C[C@@H](CCCCCCCCCCC)OC(=O)CCCCCCCCC)OC(COC2(C(=O)O)CC(O)C(O)C([C@H](O)CO)O2)C(OP(=O)(O)O)C1OC(=O)C[C@@H](CCCCCCCCCCC)OC(=O)CCCCCCCCC)OC(=O)CCCCCCCCC (stereo partly drawn) [Example 11(11d), Ammonium 6,10-anhydro-8-O-[(3R)-3-(decanoyloxy)tetradecanoyl]-3,7-bis{[(3R)-3-(decanoyloxy)tetradecanoyl]amino}-2,3,4,5,7-pentadeoxy-11-O-(3-deoxy-α-D-manno-oct-2-ulopyranonosyl)-9-O-phosphono-D-erythro-L-galacto-undecanoate]
12 | 1.61 | CCCCCCCCCCC[C@H](CC(=O)NC1C(CC[C@H](NC(=O)C[C@@H](CCCCCCCCCCC)OC(=O)CCCCCCCCC)C(=O)O)OC(CO)C(OP(=O)(O)O)C1OC(=O)C[C@@H](CCCCCCCCCCC)OC(=O)CCCCCCCCC)OC(=O)CCCCCCCCC (stereo partly drawn) [Example 13(130), Ammonium 5,9-anhydro-7-O-[(3R)-3-(decanoyloxy)tetradecanoyl]-2,6-bis{[(3R)-3-(decanoyloxy)tetradecanoyl]amino}-2,3,4,6-tetradeoxy-8-O-phosphono-D-erythro-L-galacto-decanoate]
